Measurements reported in US9089572B2, “Inhibitors of p97” (California Institute of Technology, priority 2008, dated 2015).

Columns and labels:
RPMI8226 = experiment: MTT cell growth assay, RPMI8226; format: cell-based; settings: Homo sapiens, RPMI-8226, 48 or 72 h, read-out: Cell line inhibition of growth GI50 RPMI8226
Experimental: (§1) To probe further the effect of compound 2 and related compounds 1, 3, 5, 6 and 7, various concentrations of these compounds were added to 13 different cell lines and incubated for 48 or 72 h. An MTT assay was then performed to evaluate cell growth and survival.

Ub-G76V-GFP/HeLa cells = experiment: Degradation of pre-accumulated Ub-G76V-GFP (cycloheximide chase after MG132 washout); format: cell-based; settings: for % K: relative to 0 μM
Experimental: To evaluate this possibility, an assay was developed to determine the rate of degradation of pre-accumulated Ub-G76V-GFP molecules. […] Cells were then washed with PBS three times remove the MG132. Cells were then refreshed by adding DMEM containing cycloheximide (50 μg/mL; to block production of more Ub-G76V-GFP) and test compounds (0˜10 μM) were added into cells. Eight 96-well plates were prepared and one of the plates was imaged at 25, 50, 70, 100, 110, 125, 145, or 170 min after washing with PBS three times. After washing out MG132, degradation of pre-accumulated Ub-G76V-GFP appears to follow pseudo-first order reaction. Rate constant (K; 1/min) can be determined from the slope of plotting Ln (Fold Accumulation) versus Time (min) (see FIG. 17 and FIG. 18).
Ub-G76V-GFP/HeLa cells were treated with MG132 (2 μM) for 1 h and washed with PBS three times. DMEM containing cycloheximide (50 μg/mL) and compound 8 (0-10 μM) was added into cells. Eight 96-well plates were prepared and one of the plates was imaged at 25, 50, 70, 100, 110, 125, 145, or 170 min after washing with PBS three times.

MRC5-WT = experiment: CellTiter-Glo growth inhibition, parental MRC5 cells; format: cell-based; settings: Homo sapiens, 48 h at 37° C., read-out: Cell line inhibition of growth GI50 MRC5-WT
MCF7 = experiment: MTT cell growth assay, MCF7; format: cell-based; settings: Homo sapiens, 48 or 72 h, read-out: Cell line inhibition of growth GI50 MCF7
Experimental: as §1

Molt4 = experiment: MTT cell growth assay, Molt4; format: cell-based; settings: Homo sapiens, MOLT-4, 48 or 72 h, read-out: Cell line inhibition of growth GI50 Molt4
Experimental: as §1

LNCaP = experiment: MTT cell growth assay, LNCaP; format: cell-based; settings: Homo sapiens, 48 or 72 h, read-out: Cell line inhibition of growth GI50 LNCaP
Experimental: as §1

T532C-Cdc48 = T532C-Cdc48 (Saccharomyces cerevisiae, UniProt P25694, T532C); experiment: In vitro ATP hydrolysis (malachite green ATPase assay), T532C-Cdc48; format: biochemical, yeast
T532C-Cdc48, sequence (P25694 whole entry T532C): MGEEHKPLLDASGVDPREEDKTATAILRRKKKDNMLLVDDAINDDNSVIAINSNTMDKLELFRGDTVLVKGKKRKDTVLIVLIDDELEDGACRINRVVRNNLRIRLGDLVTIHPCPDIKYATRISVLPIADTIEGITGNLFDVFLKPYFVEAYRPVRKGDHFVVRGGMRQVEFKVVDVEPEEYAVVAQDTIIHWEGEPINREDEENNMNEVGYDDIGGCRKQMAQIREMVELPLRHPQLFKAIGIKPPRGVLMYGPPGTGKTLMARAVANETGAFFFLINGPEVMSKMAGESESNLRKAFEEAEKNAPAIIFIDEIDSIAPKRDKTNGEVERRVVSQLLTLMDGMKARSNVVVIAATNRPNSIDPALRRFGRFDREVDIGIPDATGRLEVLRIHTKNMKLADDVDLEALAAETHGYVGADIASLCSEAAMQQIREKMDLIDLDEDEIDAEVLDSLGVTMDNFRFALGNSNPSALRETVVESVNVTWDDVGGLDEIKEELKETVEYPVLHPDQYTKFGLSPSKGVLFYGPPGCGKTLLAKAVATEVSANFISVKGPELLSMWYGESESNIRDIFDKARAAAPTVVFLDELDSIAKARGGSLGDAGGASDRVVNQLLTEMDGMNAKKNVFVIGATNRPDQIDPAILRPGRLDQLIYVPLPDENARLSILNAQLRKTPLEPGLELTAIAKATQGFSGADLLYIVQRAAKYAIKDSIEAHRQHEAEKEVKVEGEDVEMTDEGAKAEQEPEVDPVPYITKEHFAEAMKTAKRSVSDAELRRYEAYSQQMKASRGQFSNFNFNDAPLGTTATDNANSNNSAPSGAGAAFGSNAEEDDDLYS
Experimental: (§2) Compounds were tested for their ability to inhibit the ATPase activity of purified wild type murine p97 and T532C-Cdc48, a mutant of yeast Cdc48 in which the residue analogous to cysteine 522, threonine 532, was converted to cysteine.
(§3) To determine whether cysteine 522 is necessary for inhibition of p97 by compound 2, a mutant of p97 was constructed in which cysteine 522 was converted to either alanine (C522A-mp97) or threonine (C522T-mp97). The IC50 values of compound 2 were measured the against various enzymes during a 20-minute preincubation (see Table 2). Mutation of cysteine 522 in p97 to either alanine or threonine decreased sensitivity to compound 2 by greater than 100-fold. On the other hand, yeast Cdc48, which normally is quite resistant to compound 2, became nearly 30-fold more sensitive to the compound upon introduction of a cysteine in place of threonine 532.

Human 26S proteasome = experiment: Hydrolysis of fluorogenic proteasome substrate LLVY-AMC by purified 26S proteasome; format: biochemical; settings: 19 nM 26S proteasome, 30 min preincubation, 60 μM LLVY-AMC
Experimental: Purified human 26S proteasome (19 nM) was incubated with either DMSO, MG132 or compound 2 for 30 min at room temperature and fluorogenic proteasome substrate LLVY-AMC (60 μM) was added to initiate the reaction. Fluorescence intensity was monitored every 3 min over 30 min.

[1] = tested on: HEK293 cells that stably expressed TCR-GFP; experiment: Accumulation of ERAD reporter TCR-alpha-GFP; format: cell-based; settings: 2 h at 37° C., fluorescence microscopy
Experimental: Since p97 has a well-established role in ERAD, it was also determined whether compound 2 affects the accumulation of an ERAD-reporter, TCR-alpha-GFP. HEK293 cells that stably expressed TCR-GFP were treated with MG132 (see FIG. 19), compound 1 or compound 2 (FIG. 20) at the indicated concentrations for 2 h at 37° C. prior to being imaged by fluorescence microscopy to determine TCR-GFP accumulation. […] It was thus concluded that compound 2 inhibits p97 in cells, resulting in the accumulation of both soluble and insoluble high molecular weight ubiquitin conjugates and UPS substrates whose degradation depends upon p97.
HEK293 cells that stably expressed TCR-GFP were treated with the Velcade (FIG. 30) or compound 8 (FIG. 31) at the indicated concentrations for 2 h at 37° C. prior to being imaged by fluorescence microscopy to quantify TCR-GFP accumulation.

Yeast Cdc48 = Yeast Cdc48 (Saccharomyces cerevisiae, UniProt P25694); experiment: In vitro ATP hydrolysis, yeast Cdc48; format: biochemical
Yeast Cdc48, sequence (P25694 whole entry): as the sequence (P25694 whole entry T532C) above, with C532T counted along it
Experimental: as §2, §3

RL = experiment: MTT cell growth assay, RL; format: cell-based; settings: Homo sapiens, 48 or 72 h, read-out: Cell line inhibition of growth GI50 RL
Experimental: as §1

Human 19S ATPase = experiment: In vitro ATP hydrolysis, 19S ATPase of the 26S proteasome; format: biochemical; settings: 20-minute preincubation
Human 19S ATPase, sequence (P17980 whole entry): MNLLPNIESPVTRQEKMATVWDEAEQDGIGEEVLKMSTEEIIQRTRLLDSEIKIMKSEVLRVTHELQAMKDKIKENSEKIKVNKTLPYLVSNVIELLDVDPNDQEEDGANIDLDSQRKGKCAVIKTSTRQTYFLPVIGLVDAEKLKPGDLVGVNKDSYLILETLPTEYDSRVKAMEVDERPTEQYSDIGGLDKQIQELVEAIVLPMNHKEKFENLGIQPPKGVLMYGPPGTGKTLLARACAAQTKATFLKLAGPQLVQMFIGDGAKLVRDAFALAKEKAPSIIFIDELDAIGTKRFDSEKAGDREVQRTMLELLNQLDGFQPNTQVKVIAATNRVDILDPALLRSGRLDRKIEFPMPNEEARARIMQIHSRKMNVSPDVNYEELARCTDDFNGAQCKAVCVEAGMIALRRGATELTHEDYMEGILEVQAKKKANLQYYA
Human 19S ATPase, sequence (P62333 whole entry, further chain): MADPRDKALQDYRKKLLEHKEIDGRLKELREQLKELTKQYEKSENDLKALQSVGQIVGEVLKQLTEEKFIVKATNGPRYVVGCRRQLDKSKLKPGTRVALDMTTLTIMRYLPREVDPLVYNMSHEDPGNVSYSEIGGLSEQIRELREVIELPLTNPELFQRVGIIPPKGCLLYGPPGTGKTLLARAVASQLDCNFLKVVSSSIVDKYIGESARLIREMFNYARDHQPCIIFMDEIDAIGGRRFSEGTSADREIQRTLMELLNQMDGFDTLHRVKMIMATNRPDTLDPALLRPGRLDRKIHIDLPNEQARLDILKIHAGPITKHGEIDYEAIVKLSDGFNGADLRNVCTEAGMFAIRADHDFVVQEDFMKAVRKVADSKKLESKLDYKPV
Human 19S ATPase, sequence (P62195 2-406, further chain): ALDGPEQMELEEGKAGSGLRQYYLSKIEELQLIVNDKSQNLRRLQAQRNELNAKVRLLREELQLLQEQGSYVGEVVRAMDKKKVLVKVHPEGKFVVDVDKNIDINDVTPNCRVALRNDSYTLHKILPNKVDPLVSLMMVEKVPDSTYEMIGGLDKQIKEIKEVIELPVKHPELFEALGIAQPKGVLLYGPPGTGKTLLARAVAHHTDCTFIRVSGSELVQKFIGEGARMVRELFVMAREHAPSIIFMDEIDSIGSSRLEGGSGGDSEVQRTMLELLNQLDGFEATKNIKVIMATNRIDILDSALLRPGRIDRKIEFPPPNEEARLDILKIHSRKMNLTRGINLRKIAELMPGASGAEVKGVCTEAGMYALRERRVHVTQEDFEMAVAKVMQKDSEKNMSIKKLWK
Human 19S ATPase, sequence (P35998 2-433, further chain): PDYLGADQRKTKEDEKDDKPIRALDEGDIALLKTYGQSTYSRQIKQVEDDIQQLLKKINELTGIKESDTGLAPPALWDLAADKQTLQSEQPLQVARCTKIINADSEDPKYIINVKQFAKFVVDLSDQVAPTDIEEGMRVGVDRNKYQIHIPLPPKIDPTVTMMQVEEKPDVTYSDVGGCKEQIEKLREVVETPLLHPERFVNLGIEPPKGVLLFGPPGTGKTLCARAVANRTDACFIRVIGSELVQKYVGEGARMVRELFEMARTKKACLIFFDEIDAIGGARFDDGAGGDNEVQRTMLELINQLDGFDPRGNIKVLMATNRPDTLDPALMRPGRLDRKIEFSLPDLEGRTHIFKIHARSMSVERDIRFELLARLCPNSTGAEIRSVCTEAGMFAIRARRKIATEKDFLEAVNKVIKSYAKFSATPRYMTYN
Human 19S ATPase, sequence (P62191 2-440, further chain): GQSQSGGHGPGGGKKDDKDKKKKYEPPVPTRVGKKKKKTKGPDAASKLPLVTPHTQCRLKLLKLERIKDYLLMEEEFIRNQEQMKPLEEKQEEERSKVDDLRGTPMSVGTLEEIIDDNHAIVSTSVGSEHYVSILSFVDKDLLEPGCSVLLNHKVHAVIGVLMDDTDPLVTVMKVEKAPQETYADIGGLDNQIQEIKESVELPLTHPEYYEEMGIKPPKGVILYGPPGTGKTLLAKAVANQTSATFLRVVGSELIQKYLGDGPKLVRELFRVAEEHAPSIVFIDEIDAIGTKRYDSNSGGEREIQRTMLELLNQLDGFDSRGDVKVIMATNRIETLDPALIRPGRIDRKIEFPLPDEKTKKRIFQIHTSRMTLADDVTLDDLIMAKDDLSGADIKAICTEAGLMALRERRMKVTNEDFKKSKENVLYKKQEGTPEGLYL
Human 19S ATPase, sequence (P43686 whole entry, further chain): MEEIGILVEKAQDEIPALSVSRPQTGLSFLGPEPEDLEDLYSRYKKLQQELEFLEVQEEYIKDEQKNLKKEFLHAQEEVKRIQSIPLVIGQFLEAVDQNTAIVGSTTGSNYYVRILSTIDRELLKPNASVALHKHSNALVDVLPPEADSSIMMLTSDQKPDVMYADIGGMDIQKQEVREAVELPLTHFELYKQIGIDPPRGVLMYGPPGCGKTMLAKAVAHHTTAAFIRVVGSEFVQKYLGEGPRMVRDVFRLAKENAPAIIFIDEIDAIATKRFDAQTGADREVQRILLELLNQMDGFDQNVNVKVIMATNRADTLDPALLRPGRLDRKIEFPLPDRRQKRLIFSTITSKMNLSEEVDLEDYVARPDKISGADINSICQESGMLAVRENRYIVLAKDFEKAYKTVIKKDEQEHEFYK
Experimental: as §3
To further address the specificity of inhibition by compound 2, its activity against two other AAA ATPases, NSF and the 26S proteasome, was assayed. Although NSF is known to be sensitive to thiol-reactive agents, it was more than 100-fold less sensitive to compound 2 than p97 (Table 2). […] The results with NSF and the 26S proteasome are noteworthy because both the active D1 domain of NSF and the Rpt3 subunit of the 26S proteasome have a cysteine in the position analogous to cysteine 522 of p97 (FIG. 3).

HCT116 p53−/− = experiment: MTT cell growth assay, HCT116 p53−/−; format: cell-based; settings: Homo sapiens, HCT-116, 48 or 72 h, read-out: Cell line inhibition of growth GI50 HCT116 p53−/−
Experimental: as §1

CCRF-CEM = experiment: MTT cell growth assay, CCRF-CEM; format: cell-based; settings: Homo sapiens, 48 or 72 h, read-out: Cell line inhibition of growth GI50 CCRF-CEM
Experimental: as §1

C=CC(=O)Nc1ncnc2c1c(-c1ccccc1)nn2C(C)(C)C [Compound 2]
GI50 (RPMI8226): 400 ± 100 nM | K, rate constant of Ub-G76V-GFP degradation (Ub-G76V-GFP/HeLa cells; 0.01 μM): 0.0318 min⁻¹ | % K (Ub-G76V-GFP/HeLa cells; 0.01 μM): 83% | K, rate constant of Ub-G76V-GFP degradation (Ub-G76V-GFP/HeLa cells; 0.04 μM): 0.0306 min⁻¹ | % K (Ub-G76V-GFP/HeLa cells; 0.04 μM): 80% | K, rate constant of Ub-G76V-GFP degradation (Ub-G76V-GFP/HeLa cells; 0.16 μM): 0.0292 min⁻¹ | % K (Ub-G76V-GFP/HeLa cells; 0.16 μM): 76% | K, rate constant of Ub-G76V-GFP degradation (Ub-G76V-GFP/HeLa cells; 0.63 μM): 0.0237 min⁻¹ | % K (Ub-G76V-GFP/HeLa cells; 0.63 μM): 62% | K, rate constant of Ub-G76V-GFP degradation (Ub-G76V-GFP/HeLa cells; 2.5 μM): 0.0189 min⁻¹ | % K (Ub-G76V-GFP/HeLa cells; 2.5 μM): 49% | K, rate constant of Ub-G76V-GFP degradation (Ub-G76V-GFP/HeLa cells; 10 μM): 0.0015 min⁻¹ | % K (Ub-G76V-GFP/HeLa cells; 10 μM): 4% | IC50 (Ub-G76V-GFP/HeLa cells; Homo sapiens, HeLa, 1 h, read-out: IC50 on the decay of Ub-G76V-GFP): 1250 ± 470 nM | GI50 (MRC5-WT): 17000 ± 10000 nM | GI50 (MCF7): 500 ± 100 nM | GI50 (Molt4): 1100 ± 500 nM | GI50 (LNCaP): 2700 ± 1200 nM | IC50 (T532C-Cdc48): 14000 ± 5000 nM | increase in sensitivity of yeast Cdc48 on introduction of cysteine in place of threonine 532 (T532C-Cdc48; T532C-Cdc48 vs yeast Cdc48): ~30 fold | inhibition of hydrolysis of proteasome substrate LLVY-AMC (Human 26S proteasome): does not inhibit hydrolysis | accumulation of TCR-alpha-GFP [1]: substantial TCR-alpha-GFP accumulation | IC50 (Yeast Cdc48): 376000 ± 95000 nM | GI50 (RL): 2100 ± 1100 nM | IC50 (Human 19S ATPase): 75000 nM | GI50 (HCT116 p53−/−): 2500 ± 1500 nM | GI50 (CCRF-CEM): 1600 ± 800 nM
